Measured values published in patent EP3431468B1, “USE OF ADIPONECTIN RECEPTOR AGONISTS IN TREATING DEPRESSION, ANXIETY AND NEUROINFLAMMATION” (CENTRE NATIONAL DE LA RECHERCHE SCIENTIFIQUE, priority 2017, dated 2019).

How the values were obtained:
wt mice = assay: Rotarod, motor coordination; format: in vivo; conditions: chronic ip 1mg/kg for twenty consecutive days
Method: All behavioral testing were conducted during the light phase (between 09:00 and 14:00 am) in compliance with the Institutional Animal Care and Use Committee of the University of Nice-Sophia Antipolis (permission number 010344.01 from the French "Ministère de l'Enseignement Supérieur et de la Recherche" granted to Dr. Joëlle Chabry). • Forced Swimming test (FST) - Mice were placed an inescapable transparent tank (20cm diameter, 30cm deep) filled with water (23°C ± 0.5) for six minutes as previously described by Porsolt et al. (1977). The immobility duration, as an index of the resignation, was timed during the last four minutes of the test. A mouse was considered immobile when it remained floating with only slight movements to keep its head out of the water. • Open-field test (OF) - Locomotor activity was determined using open-field (OF) activity. […] Twenty-four hours later, the latency to fall, an index of the motor coordination, was recorded on accelerating rod (from 10 to 40 rpm/min). • Light & Dark test (L&D) - The L&D place preference test was used to assess the anxiety-like behavior. […] To initiate testing, mice were placed into the light side and activity was recorded for 5 minutes. […] The amount of water and 1% sucrose solution was measured twenty-four hours later. […]

AMPK = AMPK phosphorylation in hypothalamus by western blot; format: in vivo, mice; conditions: 1mg/kg

O=C(COc1ccc(C(=O)c2ccccc2)cc1)NC1CCN(Cc2ccccc2)CC1 [AdipoRon, 2-(4-Benzoylphenoxy)-N-[1-(phenylmethyl)-4-piperidinyl]-acetamide]
motor coordination (rotarod) (wt mice): did not significantly modify | level of phospho-AMPK (AMPK; 1-hour post ip injection): increased the level of phospho-AMPK | level of phospho-AMPK (AMPK; 30 min post ip injection): increased the level of phospho-AMPK | level of phospho-AMPK (AMPK; 3 hours post ip injection): no longer observable
